Structures can show the parent of a compound that is named as a salt.

Sequence of HCN2 (Q9UL51 whole entry): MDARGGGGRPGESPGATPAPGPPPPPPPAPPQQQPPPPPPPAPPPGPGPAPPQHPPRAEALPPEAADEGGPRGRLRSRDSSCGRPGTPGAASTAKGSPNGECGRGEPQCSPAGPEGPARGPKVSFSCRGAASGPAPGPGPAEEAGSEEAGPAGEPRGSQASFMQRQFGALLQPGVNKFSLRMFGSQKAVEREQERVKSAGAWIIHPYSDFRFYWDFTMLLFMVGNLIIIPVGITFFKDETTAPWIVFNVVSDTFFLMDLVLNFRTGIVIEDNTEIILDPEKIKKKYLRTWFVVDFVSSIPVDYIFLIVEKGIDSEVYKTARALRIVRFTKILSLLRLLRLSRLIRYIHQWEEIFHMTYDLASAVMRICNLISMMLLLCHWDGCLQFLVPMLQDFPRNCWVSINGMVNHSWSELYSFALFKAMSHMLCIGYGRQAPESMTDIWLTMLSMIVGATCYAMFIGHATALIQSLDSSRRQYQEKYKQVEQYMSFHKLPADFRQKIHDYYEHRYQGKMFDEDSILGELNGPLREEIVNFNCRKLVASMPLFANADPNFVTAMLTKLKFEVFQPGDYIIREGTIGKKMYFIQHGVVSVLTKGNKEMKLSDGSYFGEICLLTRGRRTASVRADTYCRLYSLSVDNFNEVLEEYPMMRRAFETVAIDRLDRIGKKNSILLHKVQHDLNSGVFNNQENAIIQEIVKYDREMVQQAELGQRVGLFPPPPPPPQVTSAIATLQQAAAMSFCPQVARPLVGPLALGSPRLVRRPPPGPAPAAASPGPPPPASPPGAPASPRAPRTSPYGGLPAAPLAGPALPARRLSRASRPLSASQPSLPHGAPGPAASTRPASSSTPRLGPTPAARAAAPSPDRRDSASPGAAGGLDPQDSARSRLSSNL

In the experiment the target is HCN2 (Homo sapiens (Human), UniProt Q9UL51). As to the kind of experiment: HCN2 current assay using PatchXpress 7000A. It is filed as cell-based. The following applies: PatchXpress protocol; read-out: PX HCN2 IC50. The method, then:
Example 126A, Using PatchXpress 7000A
Solutions for recording HCN currents were:
The membrane voltage was then stepped back to −30 mV for a further 8 seconds.
The peak inward current measured at the end of the pulse to −110 mV (HCN1 and HCN2) or −130 mV (HCN4) was measured and any leak current subtracted to calculate the HCN current. The HCN current amplitude was measured after each control or compound addition and normalized to the control amplitude (Control A).
All experiments were performed at room temperature (approximately 22° C.).
Each test compound concentration was applied to the cell for seven (7) minutes, at which point the next cumulative concentration was applied.
For the molecule `CC(c1ccccn1)C(N)c1ccccc1-c1noc2ccccc12` (single isomer, unassigned; diastereomer 1) [Example 1, 1-[2-(Benzo[d]isoxazol-3-yl)phenyl]-2-(pyridin-2-yl)propan-1-amine hydrochloride (diastereomer 1)], the concentration for half-maximal inhibition (IC50) (commonly the concentration that gives 50% inhibition) was 7.4 µM.

For the molecule `CS(=O)(=O)c1nc(C[C@H](N)c2ccccc2-c2noc3ccccc23)ccc1F` [Example 7, (S)-1-[2-(Benzo[d]isoxazol-3-yl)phenyl]-2-(5-fluoro-6-methylsulfonylpyridine-2-yl)ethan-1-amine hydrochloride], the half-maximal inhibitory concentration (IC50) stood at 5.7 µM. Turning to `Cc1ccc(C(=O)N(C)C)nc1C[C@H](N)c1ccccc1-c1noc2ccccc12` [Example 8, (S)-6-{2-Amino-2-[2-(benzo[d]isoxazol-3-yl)phenyl]ethyl}-N,N,5-trimethylpyridine-2-carboxamide], the IC50 was 2.5 µM.

On to `N[C@@H](Cc1ccccn1)c1ccccc1-c1noc2cc(C#CCO)ccc12` [Example 32, (S)-1-[2-(6-[3-Hydroxyprop-1-yn-1-yl]benzo[d]isoxazol-3-yl)phenyl]-2-(pyridine-2-yl)ethan-1-amine hydrochloride], for which the 50% inhibitory concentration (IC50) is 8.5 µM. With `N[C@@H](Cc1ccccn1)c1ccccc1-c1noc2cc(C3CC3)ccc12` [Example 34, (S)-1-[2-(6-Cyclopropylbenzo[d]isoxazol-3-yl)phenyl]-2-(pyridine-2-yl)ethan-1-amine], the IC50 amounted to 16.7 µM.

Consider `CC(O)c1ccc2c(-c3ccccc3[C@@H](N)Cc3ccccn3)noc2c1` (stereo partly drawn) [Example 35, (S)-1-[2-(6-[1-Hydroxyethyl]benzo[d]isoxazol-3-yl)phenyl]-2-(pyridine-2-yl)ethan-1-amine], for which the half-inhibitory concentration (IC50) amounted to 8.9 µM.

For the molecule `N#Cc1ccc(-c2noc3ccccc23)c([C@@H](N)Cc2ccccn2)c1` [Example 37, (S)-1-[2-(Benzo[d]isoxazol-3-yl)-5-cyanophenyl]-2-(pyridine-2-yl)ethan-1-amine hydrochloride], the IC50 is 14 µM. For `Cc1ccc([C@@H](N)Cc2ccccn2)c(-c2noc3ccccc23)c1` [Example 38, (S)-1-[2-(Benzo[d]isoxazol-3-yl)-4-methylphenyl]-2-(pyridine-2-yl)ethan-1-amine hydrochloride], the IC50 worked out at 13 µM. Take `N[C@@H](Cc1ccccn1)c1ccccc1-c1noc2cccc(Br)c12` [Example 43, (S)-1-[2-(4-Bromobenzo[d]isoxazol-3-yl)phenyl]-2-(pyridine-2-yl)ethan-1-amine hydrochloride]: the IC50 amounted to 16 µM. The figure for `CC[C@H](c1ccccn1)[C@H](N)c1ccccc1-c1noc2ccccc12` [Example 45, (1S,2S)-1-[2-(Benzo[d]isoxazol-3-yl)phenyl]-2-(pyridin-2-yl)butan-1-amine hydrochloride] is 22.1 µM.

For the molecule `N[C@@H](Cc1cccc(N2CC[C@H](O)C2)n1)c1ccccc1-c1noc2ccccc12` [Example 53, (S)-1-(6-{(S)-2-Amino-2-[2-(benzo[d]isoxazol-3-yl)phenyl]ethyl}pyridine-2-yl)pyrrolidin-3-ol hydrochloride], the IC50 turned out to be 6.2 µM. Regarding `CC(=O)Nc1cccnc1C[C@H](N)c1ccccc1-c1noc2ccccc12` [Example 76, (S)—N-(2-{2-Amino-2-[2-(benzo[d]isoxazol-3-yl)phenyl]ethyl}pyridin-3-yl)acetamide hydrochloride], the half-maximal inhibitory concentration (IC50) was determined as 8.7 µM. Take `N[C@@H](Cc1ncccc1C1CC1)c1ccccc1-c1noc2ccccc12` [Example 79, (S)-1-[2-(Benzo[d]isoxazol-3-yl)phenyl]-2-(3-cyclopropylpyridin-2-yl)ethan-1-amine formate]: the concentration for half-maximal inhibition (IC50) was 4.9 µM. The figure for `Cc1cc(C#N)cnc1C[C@H](N)c1ccccc1-c1noc2ccccc12` [Example 80, (S)-1-[2-(Benzo[d]isoxazol-3-yl)phenyl]-2-(3-methyl-5-cyanopyridin-2-yl)ethan-1-amine] is 1.9 µM.

(Values after US20240190854A1, “PYRIMIDINE OR PYRIDINE DERIVATIVES USEFUL AS HCN2 MODULATORS” (King's College London, priority 2021, published 2024).)
